This is an account of results in patent US20060252807A1, “Novel ortho-terphenyl inhibitors of p38 kinase and methods of treating inflammatory disorders” (Kalypsys, Inc., priority 2005, published 2006).

Some results are limits rather than exact numbers.

In the experiment the target is T1, active p38 alpha enzyme (Upstate Biotechnology) (Homo sapiens, UniProt Q16539).
T1 construct: purchased Upstate Biotechnology
T1 sequence (Q16539 whole entry): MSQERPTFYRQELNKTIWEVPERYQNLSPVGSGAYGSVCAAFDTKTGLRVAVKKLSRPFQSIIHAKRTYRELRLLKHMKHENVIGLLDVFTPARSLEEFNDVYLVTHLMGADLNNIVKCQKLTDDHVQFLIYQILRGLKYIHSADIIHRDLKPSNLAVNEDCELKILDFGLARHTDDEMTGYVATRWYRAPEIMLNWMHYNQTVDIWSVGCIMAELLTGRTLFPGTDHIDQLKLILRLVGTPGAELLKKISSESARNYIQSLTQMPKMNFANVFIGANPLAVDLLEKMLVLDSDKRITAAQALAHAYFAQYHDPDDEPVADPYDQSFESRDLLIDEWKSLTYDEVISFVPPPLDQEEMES
In words: p38α biochemical assay (ATP turnover, luminescent detection, Cambrex PKlight). The settings on record: p38α biochemical assay, Table 1 Biological Activity. Here is the method: The p38α biochemical assay employed is based on measurement of total ATP turnover following enzyme incubation with substrate in the presence of ATP with the use of a luminescent detection reagent (Cambrex PKlight). The assays were performed in 1536-well white opaque plates.
The final volume was 7.5005 μL as prepared prepared from the addition of 5 ul of kinase reaction (p38 alpah+MapkapK2+ATP) with 0.0005 μL compound dissolved in DMSO, and 2.5 ul of the detection reagent. Assay buffer contains the following reagents to give final concentration in the assay: 200 mM Tris, 100 mM MgCl2, 1.5 mM EGTA, 4 mM CaCl2, 20 mM MOPS, 1 mM EDTA, 1% glycerol, 0.1% B-Mecaptoethanol, and 1 mg/ml BSA. Test compounds are pinned using proprietary pintool technology (Kalypsys, Inc) and delivered as […] amounts into the 5 ul mixture of active p38 alpha enzyme (Upstate Biotechnology) and MapkapK2 (Upstate Biotechnology) whole protein as a substrate for phosphorylation in the presence of 1.4 uM final concentration ATP. Reactions are incubated at 30C for 2 hours and detection reagent is added in 2.5 ul/well amounts. Assay is read using a Perkin Elmer Viewlux.
As for `CC(C)NC(=O)c1csc(-c2oc(CNC(=O)c3cccc(F)c3)nc2-c2ccc(F)cc2)n1` [Example 127], the IC50 is greater than 1000 nM.

Consider `CCCCCCCC(=O)NCc1nc(-c2ccc(F)cc2)c(-c2nc(C(=O)NC(C)C)cs2)o1` [Example 128], for which the half-inhibitory concentration (IC50) was no more than 1000 nM.

On to `CC(C)NC(=O)c1csc(-c2oc(CNC(=O)c3ccc(C#N)cc3)nc2-c2ccc(F)cc2)n1` [Example 129], for which the half-maximal inhibitory concentration (IC50) was no more than 1000 nM.

As to `CC(C)NC(=O)c1csc(-c2oc(CNC(=O)c3cccc(C#N)c3)nc2-c2ccc(F)cc2)n1` [Example 130], the concentration for half-maximal inhibition (IC50) was no more than 1000 nM.

In turn, `CC(C)NC(=O)c1csc(-c2oc(CNC(=O)/C=C/c3ccccc3)nc2-c2ccc(F)cc2)n1` [Example 131] returned a 50% inhibitory concentration (IC50) of no more than 1000 nM.

For the compound `CC(C)NC(=O)c1csc(-c2oc(CNC(=O)c3ccccc3C=O)nc2-c2ccc(F)cc2)n1` [Example 132], the half-maximal inhibitory concentration (IC50) was greater than 1000 nM.

Compound `CC(C)NC(=O)c1csc(-c2oc(CNC(=O)c3ccc(C=O)cc3)nc2-c2ccc(F)cc2)n1` [Example 133] came in with an IC50 of no more than 1000 nM.

Regarding `Cc1ccc(C(=O)NCc2nc(-c3ccc(F)cc3)c(-c3nc(C(=O)NC(C)C)cs3)o2)c(C)c1` [Example 134], the IC50 is greater than 1000 nM.

Consider `Cc1ccccc1CC(=O)NCc1nc(-c2ccc(F)cc2)c(-c2nc(C(=O)NC(C)C)cs2)o1` [Example 135], for which the IC50 is greater than 1000 nM.

Compound `Cc1cccc(C(=O)NCc2nc(-c3ccc(F)cc3)c(-c3nc(C(=O)NC(C)C)cs3)o2)c1C` [Example 136] came in with a 50% inhibitory concentration (IC50) greater than 1000 nM.

Compound `Cc1ccc(C)c(C(=O)NCc2nc(-c3ccc(F)cc3)c(-c3nc(C(=O)NC(C)C)cs3)o2)c1` [Example 137] had a half-inhibitory concentration (IC50) greater than 1000 nM.

In the case of `Cc1cc(C)cc(C(=O)NCc2nc(-c3ccc(F)cc3)c(-c3nc(C(=O)NC(C)C)cs3)o2)c1` [Example 138], the 50% inhibitory concentration (IC50) is greater than 1000 nM.

Compound `Cc1ccc(C(=O)NCc2nc(-c3ccc(F)cc3)c(-c3nc(C(=O)NC(C)C)cs3)o2)cc1C` [Example 139] showed an IC50 greater than 1000 nM.

As to `CCc1ccc(C(=O)NCc2nc(-c3ccc(F)cc3)c(-c3nc(C(=O)NC(C)C)cs3)o2)cc1` [Example 140], the IC50 is greater than 1000 nM.

As for `COc1ccc(C(=O)NCc2nc(-c3ccc(F)cc3)c(-c3nc(C(=O)NC(C)C)cs3)o2)cc1` [Example 141], the 50% inhibitory concentration (IC50) was greater than 1000 nM.

The compound `Cc1cccc(C(=O)NCc2nc(-c3ccc(F)cc3)c(-c3nc(C(=O)NC(C)C)cs3)o2)c1O` [Example 142] had a 50% inhibitory concentration (IC50) greater than 1000 nM.

Regarding `CC(C)NC(=O)c1csc(-c2oc(CNC(=O)Cc3ccccc3O)nc2-c2ccc(F)cc2)n1` [Example 143], the IC50 is no more than 1000 nM.

The compound `CC(C)NC(=O)c1csc(-c2oc(CNC(=O)Cc3cccc(O)c3)nc2-c2ccc(F)cc2)n1` [Example 144] gave a 50% inhibitory concentration (IC50) of no more than 1000 nM.

Regarding `Cc1ccc(O)c(C(=O)NCc2nc(-c3ccc(F)cc3)c(-c3nc(C(=O)NC(C)C)cs3)o2)c1` [Example 145], the half-maximal inhibitory concentration (IC50) was greater than 1000 nM.

`CC(C)NC(=O)c1csc(-c2oc(CNC(=O)c3cc(O)ccc3O)nc2-c2ccc(F)cc2)n1` [Example 146] yielded a half-inhibitory concentration (IC50) of no more than 1000 nM.

As for `CC(C)NC(=O)c1csc(-c2oc(CNC(=O)c3cccc(O)c3O)nc2-c2ccc(F)cc2)n1` [Example 147], the IC50 was no more than 1000 nM.

With `CC(C)NC(=O)c1csc(-c2oc(CNC(=O)c3ccc(O)cc3O)nc2-c2ccc(F)cc2)n1` [Example 148], the IC50 is no more than 1000 nM.

For the compound `Cc1ccc(C(=O)NCc2nc(-c3ccc(F)cc3)c(-c3nc(C(=O)NC(C)C)cs3)o2)cc1F` [Example 149], the IC50 is greater than 1000 nM.

In turn, `Cc1ccc(F)cc1C(=O)NCc1nc(-c2ccc(F)cc2)c(-c2nc(C(=O)NC(C)C)cs2)o1` [Example 150] displayed a half-maximal inhibitory concentration (IC50) of no more than 1000 nM.

The compound `CC(C)NC(=O)c1csc(-c2oc(CNC(=O)c3ccccc3Cl)nc2-c2ccc(F)cc2)n1` [Example 151] gave an IC50 of no more than 1000 nM.

Turning to `CC(C)NC(=O)c1csc(-c2oc(CNC(=O)c3ccc(Cl)nc3)nc2-c2ccc(F)cc2)n1` [Example 152], the IC50 was no more than 1000 nM.

Regarding `CC(C)NC(=O)c1csc(-c2oc(CNC(=O)c3cccnc3Cl)nc2-c2ccc(F)cc2)n1` [Example 153], the IC50 was no more than 1000 nM.

`CC(C)NC(=O)c1csc(-c2oc(CNC(=O)c3ccnc(Cl)c3)nc2-c2ccc(F)cc2)n1` [Example 154] gave an IC50 greater than 1000 nM.

The compound `CC(C)NC(=O)c1csc(-c2oc(CNC(=O)c3cc(Cl)ccn3)nc2-c2ccc(F)cc2)n1` [Example 155] yielded a half-inhibitory concentration (IC50) greater than 1000 nM.

Turning to `CC(C)NC(=O)c1csc(-c2oc(CNC(=O)c3ccncc3Cl)nc2-c2ccc(F)cc2)n1` [Example 156], the IC50 is no more than 1000 nM.

For the compound `CC(C)NC(=O)c1csc(-c2oc(CNC(=O)c3c(F)cccc3F)nc2-c2ccc(F)cc2)n1` [Example 157], the IC50 is no more than 1000 nM.

Compound `CC(C)NC(=O)c1csc(-c2oc(CNC(=O)c3cccc(F)c3F)nc2-c2ccc(F)cc2)n1` [Example 158] showed a 50% inhibitory concentration (IC50) of no more than 1000 nM.

The compound `CC(C)NC(=O)c1csc(-c2oc(CNC(=O)c3ccc(F)cc3F)nc2-c2ccc(F)cc2)n1` [Example 159] had a concentration for half-maximal inhibition (IC50) of no more than 1000 nM.

Compound `CC(C)NC(=O)c1csc(-c2oc(CNC(=O)c3cc(F)cc(F)c3)nc2-c2ccc(F)cc2)n1` [Example 160] registered a half-maximal inhibitory concentration (IC50) greater than 1000 nM.

Regarding `CC(C)NC(=O)c1csc(-c2oc(CNC(=O)c3ccc(F)c(F)c3)nc2-c2ccc(F)cc2)n1` [Example 161], the IC50 was greater than 1000 nM.

The compound `CC(CC(=O)NCc1nc(-c2ccc(F)cc2)c(-c2nc(C(=O)NC(C)C)cs2)o1)CC(C)(C)C` (stereo not shown) [Example 162] yielded a half-inhibitory concentration (IC50) greater than 1000 nM.

For `CC(C)NC(=O)c1csc(-c2oc(CNC(=O)c3cc4ccccc4o3)nc2-c2ccc(F)cc2)n1` [Example 163], the IC50 is greater than 1000 nM.

With `CC(C)NC(=O)c1csc(-c2oc(CNC(=O)C3CCc4ccccc43)nc2-c2ccc(F)cc2)n1` (stereo not shown) [Example 164], the half-maximal inhibitory concentration (IC50) is greater than 1000 nM.

With `CC(C)NC(=O)c1csc(-c2oc(CNC(=O)C(Cl)(Cl)Cl)nc2-c2ccc(F)cc2)n1` [Example 165], the IC50 is greater than 1000 nM.

As to `CC(C)NC(=O)c1csc(-c2oc(CNC(=O)/C=C/c3ccccc3O)nc2-c2ccc(F)cc2)n1` [Example 166], the IC50 is no more than 1000 nM.

For `CC(=O)c1ccc(C(=O)NCc2nc(-c3ccc(F)cc3)c(-c3nc(C(=O)NC(C)C)cs3)o2)cc1` [Example 167], the IC50 was no more than 1000 nM.

Regarding `CC(C)NC(=O)c1csc(-c2oc(CNC(=O)/C=C/c3cccc(O)c3)nc2-c2ccc(F)cc2)n1` [Example 168], the IC50 is no more than 1000 nM.

Consider `CC(=O)c1cccc(C(=O)NCc2nc(-c3ccc(F)cc3)c(-c3nc(C(=O)NC(C)C)cs3)o2)c1` [Example 169], for which the half-inhibitory concentration (IC50) was greater than 1000 nM.

With `CC(=O)c1ccccc1C(=O)NCc1nc(-c2ccc(F)cc2)c(-c2nc(C(=O)NC(C)C)cs2)o1` [Example 170], the half-inhibitory concentration (IC50) was greater than 1000 nM.

Compound `CC(C)NC(=O)c1csc(-c2oc(CNC(=O)c3ccc(C(C)C)cc3)nc2-c2ccc(F)cc2)n1` [Example 171] came in with an IC50 greater than 1000 nM.

`Cc1ccccc1CCC(=O)NCc1nc(-c2ccc(F)cc2)c(-c2nc(C(=O)NC(C)C)cs2)o1` [Example 172]: the half-inhibitory concentration (IC50) is greater than 1000 nM.

Consider `Cc1cccc(CCC(=O)NCc2nc(-c3ccc(F)cc3)c(-c3nc(C(=O)NC(C)C)cs3)o2)c1` [Example 173], for which the IC50 was greater than 1000 nM.

`CCC(C(=O)NCc1nc(-c2ccc(F)cc2)c(-c2nc(C(=O)NC(C)C)cs2)o1)c1ccccc1` (stereo not shown) [Example 174] displayed a 50% inhibitory concentration (IC50) greater than 1000 nM.

`Cc1cc(C)c(C(=O)NCc2nc(-c3ccc(F)cc3)c(-c3nc(C(=O)NC(C)C)cs3)o2)c(C)c1` [Example 175] came in with a half-maximal inhibitory concentration (IC50) greater than 1000 nM.

Compound `CCCc1ccc(C(=O)NCc2nc(-c3ccc(F)cc3)c(-c3nc(C(=O)NC(C)C)cs3)o2)cc1` [Example 176] yielded a 50% inhibitory concentration (IC50) greater than 1000 nM.

As for `CC(C)NC(=O)c1csc(-c2oc(CNC(=O)c3ccc4c(c3)OCO4)nc2-c2ccc(F)cc2)n1` [Example 177], the IC50 is greater than 1000 nM.

Take `CC(C)NC(=O)c1csc(-c2oc(CNC(=O)/C=C/c3ccccc3F)nc2-c2ccc(F)cc2)n1` [Example 178]: the half-maximal inhibitory concentration (IC50) is no more than 1000 nM.

As for `CCOc1ccccc1C(=O)NCc1nc(-c2ccc(F)cc2)c(-c2nc(C(=O)NC(C)C)cs2)o1` [Example 179], the IC50 is greater than 1000 nM.

`Cc1ccccc1OCC(=O)NCc1nc(-c2ccc(F)cc2)c(-c2nc(C(=O)NC(C)C)cs2)o1` [Example 180] showed a 50% inhibitory concentration (IC50) greater than 1000 nM.

Consider `CC(C)NC(=O)c1csc(-c2oc(CNC(=O)CCc3ccccc3O)nc2-c2ccc(F)cc2)n1` [Example 181], for which the IC50 was no more than 1000 nM.

Turning to `COc1ccccc1CC(=O)NCc1nc(-c2ccc(F)cc2)c(-c2nc(C(=O)NC(C)C)cs2)o1` [Example 182], the concentration for half-maximal inhibition (IC50) was no more than 1000 nM.

For the compound `CC(C)NC(=O)c1csc(-c2oc(CNC(=O)C(C)c3ccc(O)cc3)nc2-c2ccc(F)cc2)n1` (stereo not shown) [Example 183], the IC50 was no more than 1000 nM.

`CC(C)NC(=O)c1csc(-c2oc(CNC(=O)c3ccccc3[N+](=O)[O-])nc2-c2ccc(F)cc2)n1` [Example 184] yielded a 50% inhibitory concentration (IC50) of no more than 1000 nM.

As for `CC(C)NC(=O)c1csc(-c2oc(CNC(=O)c3cccc([N+](=O)[O-])c3)nc2-c2ccc(F)cc2)n1` [Example 185], the concentration for half-maximal inhibition (IC50) is greater than 1000 nM.

As for `COc1cccc(O)c1C(=O)NCc1nc(-c2ccc(F)cc2)c(-c2nc(C(=O)NC(C)C)cs2)o1` [Example 186], the 50% inhibitory concentration (IC50) was greater than 1000 nM.

Compound `COc1ccc(O)c(C(=O)NCc2nc(-c3ccc(F)cc3)c(-c3nc(C(=O)NC(C)C)cs3)o2)c1` [Example 187] displayed an IC50 greater than 1000 nM.

What is called IC50 is the concentration at which inhibition is half-maximal. A low value points to greater potency.
